± gives the expanded uncertainty stated by the source.

This data set in a line: molar enthalpy of vaporization or sublimation. Conditions: 298.15 K; Crystal; Calvet.
On to `Oc1ccccc1I` [2-iodophenol], for which the molar enthalpy turned out to be 18.2 ± 0.669 kcal/mol.
Consider `Oc1ccc(I)cc1` [4-iodophenol], for which the molar enthalpy stood at 21.2 ± 0.717 kcal/mol.
Take `Oc1cccc(I)c1` [m-iodophenol]: the molar enthalpy was found to be 21.1 ± 0.765 kcal/mol.

The values above are taken from the NIST ThermoML archive (doi:10.1021/je200833s).
